A word on the IC50: it is the concentration at which inhibition is half-maximal.

Among the data in patent publication US20220064141A1, “BENZOPYRIDONE HETEROCYCLIC COMPOUND AND USE THEREOF” (BrightGene Bio-Medical Technology Co., Ltd., priority 2019, published 2022) are IC50 values, retold here.

Structures are written as SMILES.

In the assay the test system is NCI-H358 human non-small cell lung cancer cell with KRAS G12C mutation. The experiment in a line: Cell Titer-Glo cell viability, NCI-H358 cells (72 h). As to conditions: Homo sapiens, NCI-H358, 72 h, numeric values. It counts as cell-based. Summed up: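 NCI-H358 (KRAS G12C) cells in DMEM with 10% FBS, seeded and left overnight at 37 °C, then treated 72 h with compound at 30 μM to 0.01 nM final. Viability from ATP content with Cell Titer-Glo after 1-4 h incubation at 37 °C; […].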

Take `C=CC(=O)N1CCN(c2c(C#N)c(=O)n(-c3ccccc3C(C)C)c3cc(-c4c(C)ccc5[nH]ncc45)c(Cl)cc23)[C@@H](C)C1` (single isomer, unassigned) [Compound I-2-2]: the midpoint of inhibition, the IC50, lay at 50 nM.
